Measurements from patent US20250262201A1, “COMPOUNDS AND METHODS USEFUL FOR STABILIZING PHENYLALANINE HYDROXYLASE MUTATIONS” (Agios Pharmaceuticals, Inc., priority 2022, published 2025).

target: T1, human PAH with the R408W mutation (Homo sapiens, UniProt P00439, R408W); assay: Cell Based Phenylalanine Flux Assay; set-up: scale not given here; details: A375 R408W cells, 24 hrs with compound, then 20 μM sepiapterin and 800 μM 13C9,15N-Phenylalanine for 4 hours; 13C-Tyrosine by LC-MS; average where tested multiple times
T1 construct: expressed in transfected cells
T1 sequence (P00439 1-452 R408W): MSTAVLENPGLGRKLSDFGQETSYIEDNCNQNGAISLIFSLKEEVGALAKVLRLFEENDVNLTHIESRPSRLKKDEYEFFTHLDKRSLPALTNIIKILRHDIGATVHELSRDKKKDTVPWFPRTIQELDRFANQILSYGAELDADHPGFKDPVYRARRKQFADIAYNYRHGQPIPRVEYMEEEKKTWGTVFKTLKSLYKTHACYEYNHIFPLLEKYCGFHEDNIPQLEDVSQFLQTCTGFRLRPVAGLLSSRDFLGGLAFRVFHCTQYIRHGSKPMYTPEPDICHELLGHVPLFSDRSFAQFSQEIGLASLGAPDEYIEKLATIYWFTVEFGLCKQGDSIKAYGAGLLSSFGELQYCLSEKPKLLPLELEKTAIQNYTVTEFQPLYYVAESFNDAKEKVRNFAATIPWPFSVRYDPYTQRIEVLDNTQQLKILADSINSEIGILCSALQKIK

| AC50 | SMILES |
| --- | --- |
| E, E | COc1ccc(-c2nc(C(F)F)c(C(=O)N3CCc4[nH]cnc4C3c3ncc4ccccc4n3)o2)nc1 (centres unmarked) |

same assay, conditions: A375 R408W cells, 24 hrs with compound, then 20 μM sepiapterin and 800 μM 13C9,15N-Phenylalanine for 4 hours; 13C-Tyrosine by LC-MS; average where tested multiple times; read-out: AC50

| SMILES | AC50 [µM] |
| --- | --- |
| CC1CN(C(=O)c2nnc(N(C)C)o2)C(c2cc3ccccc3cn2)c2nc[nH]c21 (centres unmarked) | > 5 |
| O=C(c1oc(-c2ccccn2)nc1C1CC1)N1CCc2nc[nH]c2[C@H]1c1cn2ccccc2n1 (single isomer, unassigned) | > 5 |
| O=C(Cc1cncs1)N1CCc2[nH]cnc2C1c1cn2ccccc2n1 (centres unmarked) | > 5 |
| O=C(c1oc(-c2ccccn2)nc1C(F)F)N1CCc2[nH]cnc2C1c1cc2ccccc2nn1 (centres unmarked) | > 5 |
| O=C(c1nnc(-c2ccccn2)o1)N1CCCc2[nH]cnc2C1c1cn2ccccc2n1 (centres unmarked) | > 5 |
| O=C(N1CCc2[nH]cnc2C1c1cn2ccccc2n1)C(F)(F)C1(O)CCC1 (centres unmarked) | 1 to 5 |

Further lines, results first:

| AC50 [µM] | SMILES |
| --- | --- |
| > 5 | COCc1ccc2c(C(=O)N3CCc4[nH]cnc4C3c3ccc4ccccc4n3)cnn2c1 (centres unmarked) |
| 1 to 5 | O=C(c1cnn(CC(F)(F)F)c1Cl)N1CCc2[nH]cnc2C1c1ccc2ccccc2n1 (centres unmarked) |
| 1 to 5 | CC(C)(O)c1nnc(C(=O)N2CCc3[nH]cnc3C2c2ncc3ccccc3n2)o1 (centres unmarked) |
| 1 to 5 | O=C(c1nnc(N2CC(F)C2)o1)N1CCc2[nH]cnc2C1c1ccc2ccccc2n1 (centres unmarked) |
| > 5 | O=C(c1ncn2ccccc12)N1CCc2[nH]cnc2C1c1ccc2ccccc2n1 (centres unmarked) |

same assay, conditions: A375 cells expressing human R408W PAH; 24 hrs compound incubation; 13C-Tyrosine by LC-MS; average where tested multiple times; read-out: AC50

| SMILES | AC50 [µM] |
| --- | --- |
| FC(F)(F)c1cnc(N2CCc3[nH]cnc3[C@@H]2c2cn3ccccc3n2)nc1 [Example 232, (S)-4-(imidazo[1,2-a]pyridin-2-yl)-5-(5-(trifluoromethyl)pyrimidin-2-yl)-4,5,6,7-tetrahydro-1H-imidazo[4,5-c]pyridine] | > 5 |
| C[C@@H](O)c1nc(C(F)F)c(C(=O)N2CCc3[nH]cnc3C2c2ccc3ccccc3n2)o1 (stereo in doubt) [Example 119, (4-(difluoromethyl)-2-((R)-1-hydroxyethyl)oxazol-5-yl)((S)-4-(quinolin-2-yl)-6,7-dihydro-1H-imidazo[4,5-c]pyridin-5(4H)-yl)methanone] | 1 to 5 |
| O=C(c1ocnc1C(F)(F)F)N1CCc2[nH]cnc2[C@@H]1c1cn2ccccc2n1 [Example 233, (S)-(4-(imidazo[1,2-a]pyridin-2-yl)-6,7-dihydro-1H-imidazo[4,5-c]pyridin-5(4H)-yl)(4-(trifluoromethyl)oxazol-5-yl)methanone] | > 5 |
| CC(C)(F)c1ncc(C(=O)N2CCc3[nH]cnc3[C@@H]2c2cc3ccccc3cn2)s1 [Example 333, (S)-(2-(2-fluoropropan-2-yl)thiazol-5-yl)(4-(isoquinolin-3-yl)-6,7-dihydro-1H-imidazo[4,5-c]pyridin-5(4H)-yl)methanone] | 1 to 5 |
| CC(C)(C)c1ncc(C(=O)N2CCc3[nH]cnc3[C@@H]2c2cc3ccccc3cn2)s1 [Example 317, (S)-(2-(tert-butyl)thiazol-5-yl)(4-(isoquinolin-3-yl)-6,7-dihydro-1H-imidazo[4,5-c]pyridin-5(4H)-yl)methanone] | > 5 |
| CC(C)(F)c1nnc(C(=O)N2CCc3[nH]cnc3[C@H]2c2cc3ccccc3nn2)o1 [Example 218, (S)-(4-(cinnolin-3-yl)-6,7-dihydro-1H-imidazo[4,5-c]pyridin-5(4H)-yl)(5-(2-fluoropropan-2-yl)-1,3,4-oxadiazol-2-yl)methanone] | 0.5 to 1 |
| O=C(c1cnc(C2(F)CCC2)s1)N1CCc2[nH]cnc2[C@@H]1c1cn2ccccc2n1 [Example 252, (S)-(2-(1-fluorocyclobutyl)thiazol-5-yl)(4-(imidazo[1,2-a]pyridin-2-yl)-6,7-dihydro-1H-imidazo[4,5-c]pyridin-5(4H)-yl)methanone] | > 5 |
| Cc1nnc(C(=O)N2CC3(CC3)c3[nH]cnc3[C@H]2c2cc3ccccc3cn2)o1 [Example 490, (R)-(4′-(isoquinolin-3-yl)spiro[cyclopropane-1,7′-imidazo[4,5-c]pyridin]-5′(1′H,4′H,6′H)-yl)(5-methyl-1,3,4-oxadiazol-2-yl)methanone] | < 0.5 |
| C[C@H]1CN(C(=O)c2nnc(-c3ccccn3)o2)[C@@H](c2cc3ccccc3cn2)c2nc[nH]c21 (single isomer, unassigned) [Example 386] | > 5 |
| C[C@H]1CN(C(=O)c2cnc(C(C)(C)O)o2)[C@H](c2cc3ccccc3cn2)c2nc[nH]c21 [Example 395, (2-(2-hydroxypropan-2-yl)oxazol-5-yl)((4R,7S)-4-(isoquinolin-3-yl)-7-methyl-6,7-dihydro-1H-imidazo[4,5-c]pyridin-5(4H)-yl)methanone] | 0.5 to 1 |

The remaining lines, values ahead:

| AC50 [µM] | SMILES |
| --- | --- |
| > 5 | Cn1cc(-c2nnc(C(=O)N3CCc4[nH]cnc4[C@@H]3c3ncc4ccccc4n3)o2)cn1 [Example 144, (R)-(5-(1-methyl-1H-pyrazol-4-yl)-1,3,4-oxadiazol-2-yl)(4-(quinazolin-2-yl)-6,7-dihydro-1H-imidazo[4,5-c]pyridin-5(4H)-yl)methanone] |
| 1 to 5 | O=C(c1cnc(-c2ccccn2)s1)N1CCc2[nH]cnc2[C@@H]1c1cc2ccccc2nn1 [Example 206, (R)-(4-(cinnolin-3-yl)-6,7-dihydro-1H-imidazo[4,5-c]pyridin-5(4H)-yl)(2-(pyridin-2-yl)thiazol-5-yl)methanone] |
| < 0.5 | Cn1ccc(-c2nnc(C(=O)N3CCc4[nH]cnc4C3c3ccc4ccccc4n3)o2)n1 (stereo in doubt) [Example 85, (R)-(5-(1-methyl-1H-pyrazol-3-yl)-1,3,4-oxadiazol-2-yl)(4-(quinolin-2-yl)-6,7-dihydro-1H-imidazo[4,5-c]pyridin-5(4H)-yl)methanone] |
| > 5 | O=C(c1nnc(-c2ccc(F)cn2)o1)N1CCc2[nH]cnc2C1c1ccc2ccccc2n1 (stereo in doubt) [Example 34, (S)-(5-(5-fluoropyridin-2-yl)-1,3,4-oxadiazol-2-yl)(4-(quinolin-2-yl)-6,7-dihydro-1H-imidazo[4,5-c]pyridin-5(4H)-yl)methanone] |
| > 5 | COCc1ccc2c(C(=O)N3CCc4[nH]cnc4[C@@H]3c3ncc4ccccc4n3)cnn2c1 [Example 154, (R)-(6-(methoxymethyl)pyrazolo[1,5-a]pyridin-3-yl)(4-(quinazolin-2-yl)-6,7-dihydro-1H-imidazo[4,5-c]pyridin-5(4H)-yl)methanone] |
| < 0.5 | O=C(c1nnc(-c2ncccc2F)o1)N1CCc2[nH]cnc2C1c1ccc2ccccc2n1 (stereo in doubt) [Example 89, (R)-(5-(3-fluoropyridin-2-yl)-1,3,4-oxadiazol-2-yl)(4-(quinolin-2-yl)-6,7-dihydro-1H-imidazo[4,5-c]pyridin-5(4H)-yl)methanone] |
| < 0.5 | O=C(c1nnc(-c2cccnc2)o1)N1CCc2[nH]cnc2[C@H]1c1ncc2ccccc2n1 [Example 177, (S)-(5-(pyridin-3-yl)-1,3,4-oxadiazol-2-yl)(4-(quinazolin-2-yl)-6,7-dihydro-1H-imidazo[4,5-c]pyridin-5(4H)-yl)methanone] |
| > 5 | O=C(c1nnc(C2CC2)o1)N1CCc2[nH]cnc2[C@@H]1c1ncc2ccccc2n1 [Example 140, (R)-(5-cyclopropyl-1,3,4-oxadiazol-2-yl)(4-(quinazolin-2-yl)-6,7-dihydro-1H-imidazo[4,5-c]pyridin-5(4H)-yl)methanone] |
| > 5 | O=C(c1nnc(-c2ccc(F)cc2)o1)N1CCc2[nH]cnc2[C@@H]1c1ccc2ccccc2n1 [Example 12] |
| 1 to 5 | Cc1nc(-c2ccccn2)oc1C(=O)N1CCc2[nH]cnc2[C@@H]1c1ncc2ccccc2n1 [Example 194, (R)-(4-methyl-2-(pyridin-2-yl)oxazol-5-yl)(4-(quinazolin-2-yl)-6,7-dihydro-1H-imidazo[4,5-c]pyridin-5(4H)-yl)methanone] |
| > 5 | O=C(c1nnc(-c2ccncc2)o1)N1CCc2[nH]cnc2[C@@H]1c1ncc2ccccc2n1 [Example 180, (R)-(5-(pyridin-4-yl)-1,3,4-oxadiazol-2-yl)(4-(quinazolin-2-yl)-6,7-dihydro-1H-imidazo[4,5-c]pyridin-5(4H)-yl)methanone] |
| < 0.5 | Cn1ncnc1C(=O)N1CCc2[nH]cnc2[C@H]1c1cc2ccccc2cn1 [Example 518, [(4R)-4-(3-isoquinolyl)-1,4,6,7-tetrahydroimidazo[4,5-c]pyridin-5-yl]-(2-methyl-1,2,4-triazol-3-yl)methanone] |
| > 5 | O=C(c1nnc(N2CCC(F)CC2)o1)N1CCc2[nH]cnc2[C@@H]1c1ncc2ccccc2n1 [Example 160, (R)-(5-(4-fluoropiperidin-1-yl)-1,3,4-oxadiazol-2-yl)(4-(quinazolin-2-yl)-6,7-dihydro-1H-imidazo[4,5-c]pyridin-5(4H)-yl)methanone] |
| < 0.5 | O=C(c1cnn2cc(CN3CCOCC3)ccc12)N1CCc2[nH]cnc2[C@H]1c1cc2ccccc2cn1 [Example 484, (R)-(4-(isoquinolin-3-yl)-6,7-dihydro-1H-imidazo[4,5-c]pyridin-5(4H)-yl)(6-(morpholinomethyl)pyrazolo[1,5-a]pyridin-3-yl)methanone] |
| > 5 | O=C(c1nnc(-c2c(F)cccc2F)o1)N1CCc2[nH]cnc2[C@@H]1c1ccc2ccccc2n1 [Example 24] |
| > 5 | O=C(c1nnc(-c2cnccn2)o1)N1CCc2[nH]cnc2[C@@H]1c1ncc2ccccc2n1 [Example 191, (R)-(5-(pyrazin-2-yl)-1,3,4-oxadiazol-2-yl)(4-(quinazolin-2-yl)-6,7-dihydro-1H-imidazo[4,5-c]pyridin-5(4H)-yl)methanone] |
